# Results as given in patent US20250090540A1, “PI3K-ALPHA INHIBITORS AND METHODS OF USE THEREOF” (Relay Therapeutics, Inc., priority 2021, published 2025).
# Target: H1047R PIK3CA enzyme (Homo sapiens, UniProt P42336, H1047R)
# Experiment: ADP-Glo Biochemical PIK3CA Kinase Assay
# Settings: not given
# Sequence of H1047R PIK3CA enzyme (P42336 whole entry H1047R): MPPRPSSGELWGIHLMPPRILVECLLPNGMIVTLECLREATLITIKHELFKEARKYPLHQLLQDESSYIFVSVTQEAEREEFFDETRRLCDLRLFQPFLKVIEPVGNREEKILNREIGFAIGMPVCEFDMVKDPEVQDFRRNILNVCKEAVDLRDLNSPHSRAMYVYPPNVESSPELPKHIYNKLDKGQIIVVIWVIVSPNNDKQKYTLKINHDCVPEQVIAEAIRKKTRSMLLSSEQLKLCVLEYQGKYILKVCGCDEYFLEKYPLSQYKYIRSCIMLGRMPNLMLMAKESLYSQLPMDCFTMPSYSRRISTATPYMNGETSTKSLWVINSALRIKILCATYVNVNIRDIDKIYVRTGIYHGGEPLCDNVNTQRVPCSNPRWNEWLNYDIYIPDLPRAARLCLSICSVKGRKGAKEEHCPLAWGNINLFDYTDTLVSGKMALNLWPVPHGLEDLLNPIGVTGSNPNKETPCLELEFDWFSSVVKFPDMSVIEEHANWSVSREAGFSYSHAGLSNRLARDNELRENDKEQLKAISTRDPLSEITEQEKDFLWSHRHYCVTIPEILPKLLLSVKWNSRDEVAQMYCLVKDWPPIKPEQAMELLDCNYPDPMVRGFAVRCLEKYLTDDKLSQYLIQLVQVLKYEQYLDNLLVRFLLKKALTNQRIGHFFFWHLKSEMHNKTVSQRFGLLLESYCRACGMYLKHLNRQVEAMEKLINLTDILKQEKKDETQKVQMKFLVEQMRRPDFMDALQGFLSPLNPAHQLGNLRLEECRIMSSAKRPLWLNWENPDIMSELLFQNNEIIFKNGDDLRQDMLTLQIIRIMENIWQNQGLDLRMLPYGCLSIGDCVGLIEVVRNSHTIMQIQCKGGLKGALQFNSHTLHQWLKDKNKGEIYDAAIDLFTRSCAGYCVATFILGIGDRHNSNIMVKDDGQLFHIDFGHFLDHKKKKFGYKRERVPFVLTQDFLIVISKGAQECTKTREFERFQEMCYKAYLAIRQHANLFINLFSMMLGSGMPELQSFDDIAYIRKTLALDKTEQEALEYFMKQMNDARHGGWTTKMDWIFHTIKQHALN
# Sequence of H1047R PIK3CA enzyme (P27986 whole entry partner): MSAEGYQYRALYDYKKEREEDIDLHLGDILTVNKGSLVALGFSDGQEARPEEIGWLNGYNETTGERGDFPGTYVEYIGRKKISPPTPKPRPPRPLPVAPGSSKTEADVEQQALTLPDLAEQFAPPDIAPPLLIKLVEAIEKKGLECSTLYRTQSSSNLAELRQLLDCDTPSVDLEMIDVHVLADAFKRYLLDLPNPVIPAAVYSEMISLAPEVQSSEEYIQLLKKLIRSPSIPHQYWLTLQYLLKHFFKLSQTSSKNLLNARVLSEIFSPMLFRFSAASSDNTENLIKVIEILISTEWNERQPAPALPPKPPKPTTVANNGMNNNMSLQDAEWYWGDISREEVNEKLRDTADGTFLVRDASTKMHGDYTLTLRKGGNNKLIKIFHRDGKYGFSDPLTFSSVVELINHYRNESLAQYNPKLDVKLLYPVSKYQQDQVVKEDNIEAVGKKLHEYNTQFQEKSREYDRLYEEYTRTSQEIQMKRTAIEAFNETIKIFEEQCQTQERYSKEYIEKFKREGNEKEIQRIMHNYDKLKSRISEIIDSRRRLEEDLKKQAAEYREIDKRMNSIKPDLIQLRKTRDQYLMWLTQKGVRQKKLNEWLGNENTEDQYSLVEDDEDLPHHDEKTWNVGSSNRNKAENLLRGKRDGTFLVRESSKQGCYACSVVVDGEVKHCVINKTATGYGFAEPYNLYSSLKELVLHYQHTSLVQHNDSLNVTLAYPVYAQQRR
row,IC50 [µM],SMILES
1,10 to 100,CNC(=O)c1cnc(Nc2cc(F)ccc2Cl)c(NC(=O)NC23C[C@H]4C[C@@H](C2)C[C@@H](C3)C4)c1 [I-799]
2,1 to 10,"O=C(Nc1cc(-c2cnn(C(F)F)c2)cnc1Nc1cc(F)ccc1Cl)c1cc(F)cc(C(F)(F)F)c1 [I-803, N-(2-((2-chloro-5-fluorophenyl)amino)-5-(1-(difluoromethyl)-1H-pyrazol-4-yl)pyridin-3-yl)-3-fluoro-5-(trifluoromethyl)benzamide]"
3,10 to 100,O=C(Nc1cc(-c2ccc3ncnn3c2)cnc1Nc1cc(F)ccc1Cl)c1cc(F)cc(C(F)(F)F)c1 [I-804]
4,10 to 100,"CNC(=O)c1cnc(Nc2cc(F)ccc2Cl)c(Nc2nccc3c(Cl)cccc23)c1 [I-805, 6-((2-chloro-5-fluorophenyl)amino)-5-((5-chloroisoquinolin-1-yl)amino)-N-methylnicotinamide]"
5,10 to 100,O=C(Nc1ccnn1-c1ccccc1)c1cc(F)cc(C(F)(F)F)c1 [I-806]
6,10 to 100,O=C(Nc1cccc(=O)n1Cc1ccccc1Cl)c1csc2ccccc12 [I-807]
7,10 to 100,CNC(=O)c1cnc(Nc2cc(F)ccc2Cl)c(NC(=O)c2cc(F)cc(C(F)(F)F)c2)c1 [I-810]
8,10 to 100,O=C(Nc1cc(-c2ccc3ncnn3c2)cnc1Nc1cc(CO)ccc1Cl)c1cc(F)cc(C(F)(F)F)c1 [I-811]
9,10 to 100,CNC(=O)c1cnc(NC(CO)CCO)c(NC(=O)c2cc(F)cc(C(F)(F)F)c2)c1 (stereo not shown) [I-814]
10,10 to 100,O=C1CCCC(c2nc3c(F)cc(C(F)(F)F)cc3[nH]2)N1Cc1cc(F)ccc1Cl (stereo not shown) [I-815]
11,10 to 100,O=C(Nc1cc(-c2ccc3ncnn3c2)cnc1NC(CO)CCO)c1cc(F)cc(C(F)(F)F)c1 (stereo not shown) [I-818]
12,10 to 100,"O=C1NCc2ccccc2C1c1ccccc1-c1nc2c(F)cc(C(F)(F)F)cc2[nH]1 (stereo not shown) [I-820, 4-{2-[4-fluoro-6-(trifluoromethyl)-1H-1,3-benzodiazol-2-yl]phenyl}-1,2,3,4-tetrahydroisoquinolin-3-one]"
13,10 to 100,CNC(=O)c1cnc(-n2c(=O)ccc3ccccc32)c(NC(=O)c2cc(F)cc(C(F)(F)F)c2)c1 [I-822]
14,0.5 to 1,"CNC(=O)c1cc(NC(=O)c2cc(F)cc(C(F)(F)F)c2)c(Nc2cc(F)ccc2Cl)s1 [I-827, 5-((2-chloro-5-fluorophenyl)amino)-4-(3-fluoro-5-(trifluoromethyl)benzamido)-N-methylthiophene-2-carboxamide]"

row,SMILES,IC50 [µM]
1,Cc1ccccc1Nc1ncc(C(=O)N[C@@H]2CC(=O)N(C)C2)cc1NC(=O)c1csc2ccccc12 (racemic) [I-326],0.1 to 0.5
2,C[C@@H](NC(=O)c1cnc(N2CCOc3ccccc32)c(NC(=O)c2csc3ccccc23)c1)c1ccccn1 (racemic) [I-337],0.1 to 0.5
3,"O=C1C[C@@H](CNC(=O)c2cc(F)cc(C(F)(F)F)c2)[C@H](c2cc(F)ccc2Cl)N1 (racemic) [I-801, N-{[(2R,3S)-2-(2-chloro-5-fluorophenyl)-5-oxopyrrolidin-3-yl]methyl}-3-fluoro-5-(trifluoromethyl)benzamide]",0.1 to 0.5
4,Cc1ccccc1Nc1ncc(C(=O)N[C@H]2CCN(C)C2)cc1NC(=O)c1cc(F)cc(C(F)(F)F)c1 (stereo in doubt) [I-67],0.5 to 1
5,C[C@@H](NC(=O)c1cnc(N2CCOc3ccccc32)c(NC(=O)c2csc3ccccc23)c1)c1cccnc1 (stereo in doubt) [I-257],≤ 0.1
6,C[C@H](NC(=O)c1cnc(N2CCOc3ccccc32)c(NC(=O)c2csc3ccccc23)c1)c1cccnc1 (stereo in doubt) [I-258],0.1 to 0.5
7,C[C@@H](NC(=O)c1cnc(N2CCOc3ccccc32)c(NC(=O)c2csc3ccccc23)c1)c1ccncc1 (stereo in doubt) [I-314],0.1 to 0.5

# Same assay, conditions: ADP-Glo biochemical PIK3CA kinase assay
row,IC50 [µM],SMILES
1,1 to 10,COc1ccnc(CNC(=O)c2cnc(Nc3ccccc3C)c(NC(=O)c3cc(F)cc(C(F)(F)F)c3)c2)c1 [I-720]
2,1 to 10,CNC(=O)c1cnc(Nc2ccccc2C)c(NC(=O)c2ccc(F)c(F)c2)c1 [I-722]
3,1 to 10,CNC(=O)c1cnc(Nc2ccccc2C)c(NC(=O)c2ccc(C)c(F)c2)c1 [I-723]
4,1 to 10,COC(=O)CCS(=O)(=O)c1cnc(Nc2ccccc2C)c(NC(=O)c2cc(F)cc(C(F)(F)F)c2)c1 [I-728]
5,1 to 10,CNC(=O)c1cnc(Nc2nccc3[nH]ccc23)c(NC(=O)c2csc3ccccc23)c1 [I-729]
6,1 to 10,CNC(=O)c1cnc(Nc2cnccc2C)c(NC(=O)c2csc3ccccc23)c1 [I-730]
7,1 to 10,CNC(=O)c1cnc(Nc2ncccc2C(C)C)c(NC(=O)c2csc3ccccc23)c1 [I-731]
8,1 to 10,CNC(=O)c1cnc(Nc2c3c(nn2C)CCCC3)c(NC(=O)c2csc3ccccc23)c1 [I-732]
9,1 to 10,CNC(=O)c1cnc(Nc2ccc3c(c2)COC3)c(NC(=O)c2csc3ccccc23)c1 [I-733]
10,1 to 10,CCc1nccnc1Nc1ncc(C(=O)NC)cc1NC(=O)c1csc2ccccc12 [I-734]
11,1 to 10,CCn1nccc1Nc1ncc(C(=O)NC)cc1NC(=O)c1csc2ccccc12 [I-735]
12,1 to 10,CNC(=O)c1cnc(Nc2ccc3cnn(C)c3c2)c(NC(=O)c2csc3ccccc23)c1 [I-736]
13,1 to 10,CNC(=O)c1cnc(Nc2ccnc3c2ccn3C)c(NC(=O)c2csc3ccccc23)c1 [I-737]
14,1 to 10,CNC(=O)c1cnc(Nc2ccc3c(c2)OCC3)c(NC(=O)c2csc3ccccc23)c1 [I-738]
15,1 to 10,CNC(=O)c1cnc(Nc2cncc(F)c2)c(NC(=O)c2csc3ccccc23)c1 [I-739]
16,1 to 10,CNC(=O)c1cnc(Nc2ccc3cccnc3c2)c(NC(=O)c2csc3ccccc23)c1 [I-740]
17,1 to 10,CNC(=O)c1cnc(Nc2cncc3ccccc23)c(NC(=O)c2csc3ccccc23)c1 [I-741]
18,1 to 10,CNC(=O)c1cnc(Nc2ncccc2C2CC2)c(NC(=O)c2csc3ccccc23)c1 [I-742]
19,1 to 10,CNC(=O)c1cnc(Nc2c3c(nn2C)CCC3)c(NC(=O)c2csc3ccccc23)c1 [I-743]
20,1 to 10,CNC(=O)c1cnc(Nc2ccc3c(c2)N(C)C(=O)CO3)c(NC(=O)c2csc3ccccc23)c1 [I-744]
21,1 to 10,Cc1ccccc1Nc1ncc(C(=O)NCc2cn(C)nc2C)cc1NC(=O)c1cc(F)cc(C(F)(F)F)c1 [I-746]
22,1 to 10,Cc1ccccc1Nc1ncc(C(=O)NCc2nnc3ccccn23)cc1NC(=O)c1cc(F)cc(C(F)(F)F)c1 [I-759]
23,0.5 to 1,CNC(=O)c1cnc(Nc2ccccc2C)c(NC(=O)c2cc(Cl)nc(C(F)(F)F)c2)c1 [I-762]
24,0.5 to 1,CNC(=O)c1cnc(Nc2ccccc2C)c(NC(=O)c2coc3c(F)cc(Cl)cc23)c1 [I-766]
25,1 to 10,Cc1ccccc1Nc1ncc(-c2ccn[nH]2)cc1NC(=O)c1cc(F)cc(C(F)(F)F)c1 [I-767]

row,IC50 [µM],SMILES
1,0.5 to 1,CNC(=O)c1cnc(Nc2cccc3[nH]ccc23)c(NC(=O)c2csc3ccccc23)c1 [I-768]
2,1 to 10,Cc1ccccc1Nc1cc(=O)n(CCc2ccncn2)cc1NC(=O)c1csc2ccccc12 [I-769]
3,1 to 10,CC1COCCN1c1ncc(C(=O)N[C@H]2C[C@@H](C(N)=O)C2)cc1NC(=O)c1csc2ccccc12 (stereo partly shown) [I-770]
4,1 to 10,COC1CN(c2ncc(C(=O)N[C@H]3C[C@@H](C(C)=O)C3)cc2NC(=O)c2csc3ccccc23)C1 [I-771]
5,1 to 10,CNC(=O)c1cnc(Nc2cc(F)ccc2Cl)c(NC(=O)c2csc3ccccc23)c1 [I-775]
6,1 to 10,CNC(=O)c1cnc(Nc2ccccc2C)c(N(CC(N)=O)C(=O)c2csc3ccccc23)c1 [I-776]
7,10 to 100,COc1cncc(CNC(=O)c2cc(NC(=O)c3csc4ccccc34)n(CC3CCC3)c(=O)c2)c1 [I-777]
8,10 to 100,Nc1c2c(nn1C(=O)c1cc(F)cc(C(F)(F)F)c1)CCCC2 [I-778]
9,1 to 10,Cc1nn(C(=O)c2cc(F)cc(C(F)(F)F)c2)c(N)c1-c1ccccc1 [I-779]
10,10 to 100,Nc1cnc(Nc2cc(F)ccc2Cl)c(NC(=O)c2cc(F)cc(C(F)(F)F)c2)c1 [I-780]
11,1 to 10,O=C(Nc1cnccc1-n1cccn1)c1cc(F)cc(C(F)(F)F)c1 [I-781]
12,1 to 10,CC(C)(O)c1cnc(Nc2cc(F)ccc2Cl)c(NC(=O)c2cc(F)cc(C(F)(F)F)c2)c1 [I-782]
13,10 to 100,Nc1cnc(Nc2cc(F)ccc2Cl)c(NC(=O)c2nsc3ccccc23)c1 [I-784]
14,10 to 100,O=C(NCc1ccccc1CN1CCCCC1)c1cc(F)cc(C(F)(F)F)c1 [I-785]
15,10 to 100,O=C(Nc1cc(C2CC2)nn1-c1ccccc1)c1cc(F)cc(C(F)(F)F)c1 [I-786]
16,10 to 100,Cc1cccc(-n2nc(C)cc2NC(=O)c2cc(F)cc(C(F)(F)F)c2)c1 [I-787]
17,10 to 100,O=C(Nc1cc(C2CC2)nn1-c1ccccc1F)c1cc(F)cc(C(F)(F)F)c1 [I-788]
18,1 to 10,Cc1cc(NC(=O)c2cc(F)cc(C(F)(F)F)c2)n(-c2ccccc2F)n1 [I-789]
19,1 to 10,COc1nccc(NC(=O)c2cc(F)cc(C(F)(F)F)c2)c1Nc1ccccc1Cl [I-790]
20,1 to 10,Nc1cc(-c2ccc(F)cc2)nn1-c1nc2ccccc2[nH]1 [I-792]
21,0.1 to 0.5,N#Cc1cccc(NC(=O)c2cc(F)cc(C(F)(F)F)c2)c1Cc1ccccc1Cl [I-793]
22,10 to 100,O=C(Nc1ccn2cnnc2c1Nc1ccccc1Cl)c1cc(F)cc(C(F)(F)F)c1 [I-794]
23,10 to 100,"CNC(=O)c1cnc(Nc2cc(F)ccc2Cl)c(NC(=O)N2CCc3ccccc32)c1 [I-797, N-{2-[(2-chloro-5-fluorophenyl)amino]-5-(methylcarbamoyl)pyridin-3-yl}-2,3-dihydro-1H-indole-1-carboxamide]"
24,1 to 10,CNC(=O)c1cnc(Nc2ccccc2C)c(NC(=O)NC23C[C@H]4C[C@@H](C2)C[C@@H](C3)C4)c1 [I-798]

row,SMILES,IC50 [µM]
1,"Cc1ccccc1Nc1ncc(C(=O)N[C@@H]2CC(=O)N(C)C2)cc1NC(=O)c1csc2ccccc12 (single isomer, unassigned) [I-435]",≤ 0.1

# Test system: not listed separately
# Experiment: cells
# Settings: Homo sapiens, MCF-10A, read-out: MCF10A I50
row,SMILES,IC50 [µM]
1,Cc1ccccc1Nc1ncc(C(=O)N[C@@H]2CC(=O)N(C)C2)cc1NC(=O)c1csc2ccccc12 (racemic) [I-326],5 to 10
2,C[C@@H](NC(=O)c1cnc(N2CCOc3ccccc32)c(NC(=O)c2csc3ccccc23)c1)c1ccccn1 (racemic) [I-337],5 to 10
3,"O=C1C[C@@H](CNC(=O)c2cc(F)cc(C(F)(F)F)c2)[C@H](c2cc(F)ccc2Cl)N1 (racemic) [I-801, N-{[(2R,3S)-2-(2-chloro-5-fluorophenyl)-5-oxopyrrolidin-3-yl]methyl}-3-fluoro-5-(trifluoromethyl)benzamide]",1 to 5
4,"Cc1ccccc1Nc1ncc(C(=O)N[C@@H]2CC(=O)N(C)C2)cc1NC(=O)c1csc2ccccc12 (single isomer, unassigned) [I-435]",5 to 10
5,Cc1ccccc1Nc1ncc(C(=O)N[C@H]2CCN(C)C2)cc1NC(=O)c1cc(F)cc(C(F)(F)F)c1 (stereo in doubt) [I-67],10 to 36
6,C[C@@H](NC(=O)c1cnc(N2CCOc3ccccc32)c(NC(=O)c2csc3ccccc23)c1)c1cccnc1 (stereo in doubt) [I-257],5 to 10
7,C[C@H](NC(=O)c1cnc(N2CCOc3ccccc32)c(NC(=O)c2csc3ccccc23)c1)c1cccnc1 (stereo in doubt) [I-258],10 to 36
8,C[C@@H](NC(=O)c1cnc(N2CCOc3ccccc32)c(NC(=O)c2csc3ccccc23)c1)c1ccncc1 (stereo in doubt) [I-314],5 to 10
